In the supplement of paper PMC11208160:

Assay: recombinant UMI read abundance after kanamycin selection (control-corrected) (log10(CPM+1)); higher = more efficient recombination; extreme values may be limits of the assay; sequences stand for … in AGTGCAGAGAAAATCGGCCAGTTTTCTCTGCCTGCAGTCCGCATGCCGTGGGACCCCTTGGGTTCTAACCTGTTGCCTAGATTTATGCAGCGGACTGCCTTTCTCCCAAAGTGATAAACCGG…AGGTTGGTTTCACT; site = the 11-nt donor
Outline: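 Counts of recombinant UMIs were reported as log10(CPM+1). Before that, they were converted to CPM, averaged over replicates and scaled using control-derived factors. They came from PCR across the donor–target junction after Escherichia coli carrying the pair library and target plasmid was plated on IPTG (0.07 mM) plus kanamycin, or unselected, in two replicates each.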
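Note: IS621 bridge recombinase in Escherichia coli cells against a fixed T5 target plasmid.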

In order of falling “recombinant UMI read abundance (log10)” value:
1. GGCGTGGCATGGACCGGTTTTCCCGGTAATCCGTATTTGCA (site GGCGTGGCTTG)  2.55
2. GGGATGACATGGACCGGTTTTCCCGGTAATCCGTATTTGCT (site GGGATGACTAG)  2.32
3. GGGATTGCATGGACCGGTTTTCCCGGTAATCCGTATTTGAC (site GGGATTGCTGT)  2.05
4. GGGAGGACATGGACCGGTTTTCCCGGTAATCCGTATTTGCC (site GGGAGGACTGG)  2.04
5. GGCTAGACATGGACCGGTTTTCCCGGTAATCCGTATTTGAC (site GGCTAGACTGT)  2.02
6. GGCTACACATGGACCGGTTTTCCCGGTAATCCGTATTTGCA (site GGCTACACTTG)  1.86
7. GGGACGTCATGGACCGGTTTTCCCGGTAATCCGTATTTGTT (site GGGACGTCTAA)  1.78
8. GGCCCGTCATGGACCGGTTTTCCCGGTAATCCGTATTTGCA (site GGCCCGTCTTG)  1.73
9. GGGCATGCATGGACCGGTTTTCCCGGTAATCCGTATTTGAA (site GGGCATGCTTT)  1.59
10. GGGGCAACATGGACCGGTTTTCCCGGTAATCCGTATTTGCA (site GGGGCAACTTG)  1.4
11. GGCCCCGCATGGACCGGTTTTCCCGGTAATCCGTATTTGAT (site GGCCCCGCTAT)  1.24
12. GGGGATACATGGACCGGTTTTCCCGGTAATCCGTATTTGAT (site GGGGATACTAT)  1.2
13. GGCCAGACATGGACCGGTTTTCCCGGTAATCCGTATTTGAC (site GGCCAGACTGT)  0.867
14. GGCCCAACATGGACCGGTTTTCCCGGTAATCCGTATTTGTA (site GGCCCAACTTA)  0.848
15. GGCCTGGCATGGACCGGTTTTCCCGGTAATCCGTATTTGAG (site GGCCTGGCTCT)  0.666
16. GGGCCAACATGGACCGGTTTTCCCGGTAATCCGTATTTGTA (site GGGCCAACTTA)  0.645
17. GGGCTGGCATGGACCGGTTTTCCCGGTAATCCGTATTTGAC (site GGGCTGGCTGT)  0.6
18. GGGGTGGCATGGACCGGTTTTCCCGGTAATCCGTATTTGGT (site GGAGTGGCTAC)  0.553
19. GGGACGTCATGGACCGGTTTTCCCGGTAATCCGTATTTGTT (site GGAACGTCTAA)  0.547
20. GGCTGCTCATGGACCGGTTTTCCCGGTAATCCGTATTTGTG (site GGCTGCTCTCA)  0.427
21. GGGGCCCCATGGACCGGTTTTCCCGGTAATCCGTATTTGCA (site GGGGCCCCTTG)  0.411
22. GGGCCAACATGGACCGGTTTTCCCGGTAATCCGTATTTGTA (site GGACCAACTTA)  0.317
23. GGGACGTCATGGACCGGTTTTCCCGGTAATCCGTATTTGTT (site GGCACGTCTAA)  0.0541
24. GGGCAGCCATGGACCGGTTTTCCCGGTAATCCGTATTTGGG (site GGGCAGCCTCC)  0.0377
25. GGGGCACCATGGACCGGTTTTCCCGGTAATCCGTATTTGCC (site GGGGCACCTAG)  0.0374
26. GGCCCAACATGGACCGGTTTTCCCGGTAATCCGTATTTGTA (site GGACCAACTTA)  0.0271
27. GGCCCACCATGGACCGGTTTTCCCGGTAATCCGTATTTGTG (site GGCCCACCTCA)  0.0252
28. GGGCCAACATGGACCGGTTTTCCCGGTAATCCGTATTTGTA (site GGCCCAACTTA)  0.0205
29. GGGAAGCCATGGACCGGTTTTCCCGGTAATCCGTATTTGGG (site GTGAAGCCTCC)  0.0194
30. GGGGCACCATGGACCGGTTTTCCCGGTAATCCGTATTTGAA (site GGGGCACCTTC)  0.018
31. GGGGCCCCATGGACCGGTTTTCCCGGTAATCCGTATTTGCA (site GGGGCGCCTTG)  0.0155
32. GGGACGTCATGGACCGGTTTTCCCGGTAATCCGTATTTGTT (site GGTACGTCTAA)  0.0147
33. GGGGTGGCATGGACCGGTTTTCCCGGTAATCCGTATTTGGT (site GGCGTGGCTAC)  0.0131
34. GGGGCCCCATGGACCGGTTTTCCCGGTAATCCGTATTTGCA (site GGGGCTCCTTG)  0.0122
35. GGGGCACCATGGACCGGTTTTCCCGGTAATCCGTATTTGAA (site GGGGCACCTTT)  0.0108
36. GGGGCACCATGGACCGGTTTTCCCGGTAATCCGTATTTGAA (site GGGGCACCTTA)  0.00926
37. GGGGCACCATGGACCGGTTTTCCCGGTAATCCGTATTTGCC (site GGGGCACCTCG)  0.0076
38. GGGGCAACATGGACCGGTTTTCCCGGTAATCCGTATTTGCA (site GGGGCACCTTG)  0.00712
39. GGGAAGCCATGGACCGGTTTTCCCGGTAATCCGTATTTGGG (site GAGAAGCCTCC)  0.00654
40. GGGCCAACATGGACCGGTTTTCCCGGTAATCCGTATTTGTA (site GGTCCAACTTA)  0.0061
41. GGGGCCCCATGGACCGGTTTTCCCGGTAATCCGTATTTGCA (site GGGGCACCTTG)  0.00505
42. GGGGCACCATGGACCGGTTTTCCCGGTAATCCGTATTTGCC (site GGGGCACCTTG)  0.00491
43. GGGCGCCCATGGACCGGTTTTCCCGGTAATCCGTATTTGGG (site GGGCGCCCTCC)  0.0048
44. GGCCCAACATGGACCGGTTTTCCCGGTAATCCGTATTTGTA (site GGTCCAACTTA)  0.00413
45. GGGAAGCCATGGACCGGTTTTCCCGGTAATCCGTATTTGGG (site GGGAAGCCTCC)  0.00361
46. GGCCAGGCATGGACCGGTTTTCCCGGTAATCCGTATTTGTT (site GGCCAGGCTAA)  0.00326
47. GGCCCAACATGGACCGGTTTTCCCGGTAATCCGTATTTGTA (site GGGCCAACTTA)  0
48. GGCCCGCCATGGACCGGTTTTCCCGGTAATCCGTATTTGAA (site GGCCCGCCTTT)  0
49. GGCGACCCATGGACCGGTTTTCCCGGTAATCCGTATTTGCC (site GGCGACCCTGG)  0
50. GGCTCAACATGGACCGGTTTTCCCGGTAATCCGTATTTGCT (site GGCTCAACTAG)  0
51. GGCTTCCCATGGACCGGTTTTCCCGGTAATCCGTATTTGTC (site GGCTTCCCTGA)  0
52. GGGAAACCATGGACCGGTTTTCCCGGTAATCCGTATTTGGC (site GGGAAACCTGC)  0
53. GGGAAGCCATGGACCGGTTTTCCCGGTAATCCGTATTTGGG (site GCGAAGCCTCC)  0
54. GGGATAACATGGACCGGTTTTCCCGGTAATCCGTATTTGCC (site GGGATAACTGG)  0
55. GGGCGACCATGGACCGGTTTTCCCGGTAATCCGTATTTGTT (site GGGCGACCTAA)  0
56. GGGGAGCCATGGACCGGTTTTCCCGGTAATCCGTATTTGAA (site GGGGAGCCTTT)  0
57. GGGGCAACATGGACCGGTTTTCCCGGTAATCCGTATTTGCA (site GGGGCAGCTTG)  0
58. GGGGCAACATGGACCGGTTTTCCCGGTAATCCGTATTTGCA (site GGGGCATCTTG)  0
59. GGGGCACCATGGACCGGTTTTCCCGGTAATCCGTATTTGAA (site GGGGCACCTTG)  0
60. GGGGCACCATGGACCGGTTTTCCCGGTAATCCGTATTTGCC (site GGGGCACCTGG)  0
61. GGGGGACCATGGACCGGTTTTCCCGGTAATCCGTATTTGCA (site GGGGAACCTTG)  0
62. GGGGGACCATGGACCGGTTTTCCCGGTAATCCGTATTTGCA (site GGGGCACCTTG)  0
63. GGGGGACCATGGACCGGTTTTCCCGGTAATCCGTATTTGCA (site GGGGGACCTTG)  0
64. GGGGGACCATGGACCGGTTTTCCCGGTAATCCGTATTTGCA (site GGGGTACCTTG)  0
65. GGGGTACCATGGACCGGTTTTCCCGGTAATCCGTATTTGCA (site GGGGAACCTTG)  0
66. GGGGTACCATGGACCGGTTTTCCCGGTAATCCGTATTTGCA (site GGGGCACCTTG)  0
67. GGGGTACCATGGACCGGTTTTCCCGGTAATCCGTATTTGCA (site GGGGGACCTTG)  0
68. GGGGTACCATGGACCGGTTTTCCCGGTAATCCGTATTTGCA (site GGGGTACCTTG)  0
